These results are taken from US20150343016A1, “CHEMICAL ENTITIES AND THERAPEUTIC USES THEREOF” (The Regents of the University of Colorado, a body corporate, priority 2010, published 2015).

The structures appear in SMILES notation.

The test system of test [1] is H157 cells. As to the kind of experiment: Clonogenic assay, Bouvardin with IR, H157. It is filed as cell-based, human. On the procedure:
To assess the effect of Bouvardin, another measure of cell survival, namely, clonogenic assays, was employed. […] For example, IC50 for IR at 0 and 10 nM of Bouvardin, extrapolated from the graph in FIG. 17A, are approximately 1.5 Gy and 1.0 Gy (dark and light dotted lines respectively).
In FIG. 17 (A) Clonogenic assays were used to confirm the effects of Bouvardin in combination with radiation in H157 cells. Cells were plated in 6 well plates at 1,000 cells per well. 24 hours later, various doses of (1 nM, 5 nM and 10 nM) of Bouvardin were added with media alone as a control. 24 hours after the addition of Bouvardin, the cells were irradiated at 0, 2, 4 and 6 Gy. Colonies were allowed to form for 2 weeks and then counted. The results are shown as a percentage of control (no drug, no IR). Error bar=±1SEM. (B) The effect of Bouvardin (Bvd) and radiation on H157 xenografts in athymic mice. Bouvardin treatment began when tumors had reached approximately 200 mm3. […]
The survival of cells treated with Bouvardin and IR was measured by performing standard clonogenic assays. […] The colonies were then stained with crystal violet (1% in methanol), rinsed 3× with water, and colonies with greater than 50 cells were counted using a dissection microscope. Fraction survival was calculated as a percentage of the control (no drug, no IR).

In test [2] the test system is p53 mutant Drosophila larvae. Put plainly: Drosophila larval survival to adulthood (eclosion), drug with and without IR, p53 mutants. It is filed as in vivo. The note with it: p53 mutants; for eclosion expected if the two treatments produced an additive effect: Bouvardin and IR. On the procedure:
To validate the identification of Bouvardin from the primary screen, the effect of this molecule on Drosophila larvae alone or in combination with radiation were assessed (FIG. 12). The screen was performed using irradiated mutant larvae. Hits from the screen were defined as those that reduced the survival of IRRADIATED larvae compared to the population of drugs being tested (approximately 80 molecules at a time) or compared to DMSO controls in the re-test. A hit could therefore act by enhancing the effect of radiation, or by simply killing larvae as a single agent, or both. To distinguish among these possibilities, hits from the screen were re-tested against larvae with and without irradiation.
In FIG. 12 survival after each treatment is expressed as the fraction of animals that emerged (“eclosed”) as viable adults. The averages have been normalized to the average fraction eclosed in no IR/drug control for the respective genotype. Error bars extend beyond fractional survival of 1.0 simply because of normalization. (A-C) Fraction eclosed for WT and grp and p53 mutants at 16 uM of Bouvardin, with and without IR. The data are averages of 3-8 biological replicates per sample. Dotted line on each graph denotes expected ‘fraction eclosed’ if drug and IR act additively. IR doses were 4000R for WT and grp and 3000R for p53 because of the higher radiation sensitivity of the latter. (D) Fraction eclosed for Minute mutants and yw controls after exposure to 0 (−IR) and 2000R (+IR) of X-rays. N ranged from 86-207 per genotype per treatment, in 3 biological replicates per sample. *=p<0.01; **=<0.001. 100R=1Gy. Error bar=1 standard deviation.
The activity of Bouvardin in Drosophila alone or in combination with ionizing radiation (IR) was assessed. Drug concentrations of 10-20 μM were used to approximate the conditions of the original screen. Third instar larvae were irradiated and cultured on medium containing drug. The survival of larvae was quantified 10 days later by measuring the rate of eclosion into adulthood. […] For example, IR alone reduces the eclosion of p53 mutants to 0.63±0.05 and 10 μM of drug reduces it to 0.82±0.15. The combination of Bouvardin and IR reduces eclosion to 0.49, nearly the exact number expected (0.63±0.05×0.82±0.15=0.51±0.10) if the two treatments produced an additive effect. The expected eclosion for additive effect of drug and radiation are denoted with a white dotted line in each graph.
Wild type flies were of the Sevelin stock. Mutants have been described before. p535A-1-4 results from targeted deletion of the gene, and is maintained and used as homogygotes. grpl (Chk1 mutants) results from a p-element insertion and is a genetic null. Homozygotes of the latter were identified by the lack of GFP marker on the balancer chromosome. Minute mutants were of the genotypes y[1]w[*]; P[w[+mC]=lacW]RpS131/CyO and P[lacW]RpL36G0471 w67c23/FM7a. Because Minute mutants were in yw or w background, y1w1 (Bloomington stock #1495) was used as ‘wild type’ control in these experiments.
Feeding stage 3rd instar larvae were irradiated as previously described (2). Briefly, 120 hr old larvae were rinsed to remove food and passed through sizing sieves to obtain animals of uniform size. Larvae were placed in a Petri dish and irradiated using a TORREX X-ray generator, set at 115 kV and 5 mA (producing 2.4 Rads/sec or 1.44 Gy/min) Irradiated larvae were then cultured on cornmeal-agar media (2) containing drug or DMSO carrier. In all experiments using human cells, cells in 96-well plates were irradiated with a RS2000 Biological Irradiator (Rad Source Technologies, Inc.) delivering 1 Gy/min.

As for `COc1ccc(C[C@H]2C(=O)N[C@H](C)C(=O)N(C)[C@@H]3C(=O)N(C)[C@@H](Cc4ccc(O)c(c4)Oc4ccc(cc4)[C@H]3O)C(=O)N[C@@H](C)C(=O)N[C@H](C)C(=O)N2C)cc1` (stereo in doubt) [Bouvardin, bouvardin], the “effect on radiation-induced reduction of clonogenicity” value in test [1] is “increased the effect of radiation in reducing the clonogenicity”. For the same molecule, the “manner in which drug and radiation act together” value in test [2] is “additive manner”. Further, the “eclosion (fraction eclosed, normalized to no IR/drug control)” value in test [2] (10 μM of drug alone) turned out to be 0.82±0.15; in test [2] (combination of Bouvardin and IR) it was 0.49. Moreover, in test [2] (10 mM of drug alone), the eclosion was determined as 0.82. In addition, the “eclosion expected if the two treatments produced an additive effect” value in test [2] is 0.51±0.10; in test [2] (listed as bouvardin), 0.50. Besides, in test [2] (drug 10-20 μM), the “effect on the killing effect of radiation (+IR versus +both)” value is “increased the killing effect of radiation in a statistically significant manner”.
